# Test results reported in ChEMBL document CHEMBL1135322, “Glutathione-like tripeptides as inhibitors of glutathionylspermidine synthetase. Part 1: Substitution of the glycine carboxylic acid group” (Bioorg Med Chem Lett, 2002).
# “And” between values parts separate entries of the source, which are not always exact repeats. Equal entries are not always repeated. Where a SMILES comes first, the peptide text is derived from it.
# T1: Glutathionylspermidine synthase (Crithidia fasciculata) (UniProt P90518)
# T1 sequence (whole entry): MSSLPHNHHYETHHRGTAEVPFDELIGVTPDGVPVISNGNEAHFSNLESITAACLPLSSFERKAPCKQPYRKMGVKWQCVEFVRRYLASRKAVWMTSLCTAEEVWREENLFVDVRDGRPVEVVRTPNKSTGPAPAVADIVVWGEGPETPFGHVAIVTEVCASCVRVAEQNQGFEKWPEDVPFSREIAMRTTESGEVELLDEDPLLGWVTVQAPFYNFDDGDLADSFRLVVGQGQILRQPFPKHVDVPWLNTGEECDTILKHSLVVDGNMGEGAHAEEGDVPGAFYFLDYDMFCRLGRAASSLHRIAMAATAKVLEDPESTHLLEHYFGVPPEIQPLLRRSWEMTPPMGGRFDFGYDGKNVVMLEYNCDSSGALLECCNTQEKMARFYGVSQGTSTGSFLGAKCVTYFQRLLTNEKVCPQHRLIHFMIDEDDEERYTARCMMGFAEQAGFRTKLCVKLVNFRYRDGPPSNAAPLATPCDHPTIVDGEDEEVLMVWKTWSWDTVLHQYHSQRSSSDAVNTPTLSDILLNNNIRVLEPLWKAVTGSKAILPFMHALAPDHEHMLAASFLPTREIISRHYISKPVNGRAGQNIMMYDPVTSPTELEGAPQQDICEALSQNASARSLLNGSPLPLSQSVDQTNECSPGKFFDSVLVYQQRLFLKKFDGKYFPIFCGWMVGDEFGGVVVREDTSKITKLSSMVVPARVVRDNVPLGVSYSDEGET
# T2: Glutathionylspermidine synthase (Crithidia fasciculata, UniProt P90518)
# T2 sequence (P90518 whole entry): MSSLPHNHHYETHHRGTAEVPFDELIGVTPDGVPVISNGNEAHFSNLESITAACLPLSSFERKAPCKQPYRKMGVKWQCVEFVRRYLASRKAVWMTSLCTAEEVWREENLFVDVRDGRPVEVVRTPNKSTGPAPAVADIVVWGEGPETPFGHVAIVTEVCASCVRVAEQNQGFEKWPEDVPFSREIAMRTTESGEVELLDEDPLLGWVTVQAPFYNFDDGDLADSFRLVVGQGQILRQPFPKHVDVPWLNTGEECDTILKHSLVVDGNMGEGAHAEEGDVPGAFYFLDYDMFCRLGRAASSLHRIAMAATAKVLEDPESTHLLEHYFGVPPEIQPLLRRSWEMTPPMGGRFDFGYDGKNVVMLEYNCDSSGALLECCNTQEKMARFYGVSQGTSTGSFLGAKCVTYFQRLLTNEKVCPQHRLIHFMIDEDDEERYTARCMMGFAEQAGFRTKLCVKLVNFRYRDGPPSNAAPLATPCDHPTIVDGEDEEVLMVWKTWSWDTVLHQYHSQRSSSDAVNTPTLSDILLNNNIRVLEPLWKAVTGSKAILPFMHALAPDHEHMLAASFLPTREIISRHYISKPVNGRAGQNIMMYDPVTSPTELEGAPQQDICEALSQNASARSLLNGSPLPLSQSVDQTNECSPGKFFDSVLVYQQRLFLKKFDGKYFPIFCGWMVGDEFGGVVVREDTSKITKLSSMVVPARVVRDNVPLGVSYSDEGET
# How the values were obtained:
# [1] = molecular target: T1, Glutathionylspermidine synthase (Crithidia fasciculata); assay: Compound was tested for percent inhibition towards the enzyme Glutathionylspermidine Synthetase wild-type enzyme and compared with 0.5 mM GSH
# [2] = molecular target: T1, Glutathionylspermidine synthase (Crithidia fasciculata); assay: Compound was tested for substrate activity towards the enzyme Glutathionylspermidine Synthetase wild-type enzyme and compared with 0.5 mM GSH
# [3] = molecular target: T2, Glutathionylspermidine synthase; assay: Concentration required for the inhibition of enzyme Glutathionylspermidine Synthetase wild-type enzyme
# [4] = molecular target: T2, Glutathionylspermidine synthase; assay: Inhibition constant was evaluated against enzyme Glutathionylspermidine Synthetase wild-type enzyme
# [5] = molecular target: T1, Glutathionylspermidine synthase (Crithidia fasciculata); assay: (§1) Substrate activity against amidase free Glutathionylspermidine Synthetase mutant (C79A)
# [6] = molecular target: T1, Glutathionylspermidine synthase (Crithidia fasciculata); assay: (§2) Inhibitory activity against amidase free Glutathionylspermidine Synthetase mutant (C79A); conditions: concentration not given here
# [7] = molecular target: T3, Glutathionylspermidine synthase (Crithidia fasciculata, UniProt P90518, C79A); assay: Inhibitory constant against amidase free Glutathionylspermidine Synthetase mutant (C79A); NA denotes not applicable
# T3 sequence (P90518 whole entry C79A): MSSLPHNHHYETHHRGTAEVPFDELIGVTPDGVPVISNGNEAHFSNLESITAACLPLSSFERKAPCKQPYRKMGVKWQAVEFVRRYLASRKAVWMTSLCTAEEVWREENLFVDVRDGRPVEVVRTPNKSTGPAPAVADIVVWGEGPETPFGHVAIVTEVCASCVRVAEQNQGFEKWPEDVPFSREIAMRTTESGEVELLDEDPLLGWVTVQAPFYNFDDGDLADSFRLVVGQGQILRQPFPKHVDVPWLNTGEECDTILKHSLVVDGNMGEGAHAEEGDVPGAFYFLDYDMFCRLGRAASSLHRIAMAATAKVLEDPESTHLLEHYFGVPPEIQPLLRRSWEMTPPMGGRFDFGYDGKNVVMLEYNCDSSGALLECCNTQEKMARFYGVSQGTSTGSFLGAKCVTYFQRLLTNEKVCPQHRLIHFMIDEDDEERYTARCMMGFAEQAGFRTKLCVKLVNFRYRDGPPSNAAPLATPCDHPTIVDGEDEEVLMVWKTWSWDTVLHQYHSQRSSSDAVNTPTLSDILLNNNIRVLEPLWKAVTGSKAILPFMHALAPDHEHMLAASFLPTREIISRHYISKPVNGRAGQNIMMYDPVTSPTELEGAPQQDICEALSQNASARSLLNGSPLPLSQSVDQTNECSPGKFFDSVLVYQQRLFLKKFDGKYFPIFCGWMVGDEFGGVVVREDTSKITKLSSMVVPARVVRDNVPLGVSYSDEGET
# [8] = molecular target: T3, Glutathionylspermidine synthase; assay: as §2
# [9] = molecular target: T3, Glutathionylspermidine synthase; assay: Inhibitory constant against amidase free Glutathionylspermidine Synthetase mutant (C79A)
# [10] = molecular target: T2, Glutathionylspermidine synthase; assay: Inhibition constant was evaluated against enzyme Glutathionylspermidine Synthetase wild-type enzyme; NA denotes not applicable
# [11] = molecular target: T3, Glutathionylspermidine synthase; assay: Inhibitory activity against amidase free Glutathionylspermidine Synthetase mutant (C79A); NA denotes not applicable
# [12] = molecular target: T2, Glutathionylspermidine synthase; assay: Concentration required for the inhibition of enzyme Glutathionylspermidine Synthetase wild-type enzyme; NA denotes not applicable
# [13] = molecular target: T2, Glutathionylspermidine synthase; assay: Inhibition constant was evaluated against enzyme Glutathionylspermidine Synthetase; NA denotes not applicable
# [14] = Half-life was determined; format: ADME; conditions: human
# [15] = substrate: CC(C)C[C@H](NC(=O)CC[C@H](N)C(=O)O)C(=O)NCC(=O)O; assay: Compound was tested for substrate activity (Apparent Km) towards the enzyme Glutathionylspermidine Synthetase wild-type enzyme and compared with 0.5 mM GSH; conditions: Crithidia fasciculata
# [16] = substrate: CC(C)C[C@H](NC(=O)CC[C@H](N)C(=O)O)C(=O)NCC(N)=O; assay: as §1; conditions: Crithidia fasciculata
# [17] = substrate: CC(C)C[C@H](NC(=O)CC[C@H](N)C(=O)O)C(=O)NCc1nn[nH]n1; assay: Michaelis-Menten constant at the concentration of < 0.4 mM; conditions: Crithidia fasciculata
Molecule,inhibition [1] [%],Activity [2] [%],IC50 [3] [µM],Activity [5] [%],inhibition [6] [%],further results
Cc1ccc(S(=O)(=O)NC(=O)CNC(=O)[C@H](CC(C)C)NC(=O)CC[C@H](N)C(=O)O)cc1,2,2,2,,,
CCCCOC(=O)CNC(=O)[C@H](CC(C)C)NC(=O)CC[C@H](N)C(=O)O,0,102,,3,26,
CC(C)C[C@H](NC(=O)CC[C@H](N)C(=O)O)C(=O)NCC(=O)NO (HELM PEPTIDE1{[gGlu].L.G.[ON[*:1]]}$$$$V2.0),76,44,,1,98,Ki [7]: Not Active; IC50 [8]: 3.2 µM; Ki [9]: 2.5 µM
CC(C)C[C@H](NC(=O)CC[C@H](N)C(=O)O)C(=O)NCC(N)=O (HELM PEPTIDE1{[gGlu].L.G.[am]}$$$$V2.0),0,93,,22,89,Ki [7]: Not Active; IC50 [8]: 105 µM
CC(C)C[C@H](NC(=O)CC[C@H](N)C(=O)O)C(=O)NCC(=O)O (HELM PEPTIDE1{[gGlu].L.G}$$$$V2.0),0,104,,125,0,Ki [10]: Not Active; IC50 [11]: Not Active; IC50 [12]: Not Active; Ki [13]: Not Active; half-life [14]: 1 h
"Glutathionylspermidine synthase (Crithidia fasciculata), P90518 (protein) MSSLPHNHHYETHHRGTAEVPFDELIGVTPDGVPVISNGNEAHFSNLESITAACLPLSSFERKAPCKQPYRKMGVKWQCVEFVRRYLASRKAVWMTSLCTAEEVWREENLFVDVRDGRPVEVVRTPNKSTGPAPAVADIVVWGEGPETPFGHVAIVTEVCASCVRVAEQNQGFEKWPEDVPFSREIAMRTTESGEVELLDEDPLLGWVTVQAPFYNFDDGDLADSFRLVVGQGQILRQPFPKHVDVPWLNTGEECDTILKHSLVVDGNMGEGAHAEEGDVPGAFYFLDYDMFCRLGRAASSLHRIAMAATAKVLEDPESTHLLEHYFGVPPEIQPLLRRSWEMTPPMGGRFDFGYDGKNVVMLEYNCDSSGALLECCNTQEKMARFYGVSQGTSTGSFLGAKCVTYFQRLLTNEKVCPQHRLIHFMIDEDDEERYTARCMMGFAEQAGFRTKLCVKLVNFRYRDGPPSNAAPLATPCDHPTIVDGEDEEVLMVWKTWSWDTVLHQYHSQRSSSDAVNTPTLSDILLNNNIRVLEPLWKAVTGSKAILPFMHALAPDHEHMLAASFLPTREIISRHYISKPVNGRAGQNIMMYDPVTSPTELEGAPQQDICEALSQNASARSLLNGSPLPLSQSVDQTNECSPGKFFDSVLVYQQRLFLKKFDGKYFPIFCGWMVGDEFGGVVVREDTSKITKLSSMVVPARVVRDNVPLGVSYSDEGET",,,,,,Km [15]: 34 µM; Km [16]: 245 µM; Vmax [16]: 15%; Km [17]: 34 µM

# The next lines start with results.
inhibition [1] [%],Activity [2] [%],IC50 [3] [µM],Molecule,Activity [5] [%],inhibition [6] [%],further results
86,0,60,CC(C)C[C@H](NC(=O)CC[C@H](N)C(=O)O)C(=O)NCP(=O)(O)O,,,Ki [4]: 60 µM
,,138,CC(C)C[C@H](NC(=O)CC[C@H](N)C(=O)O)C(=O)NCc1nnn[nH]1,,,
95,1,17.2,CC(C)C[C@H](NC(=O)CC[C@H](N)C(=O)O)C(=O)NCB(O)O,,,Ki [4]: 81 µM and 18 µM
58,0,,CC(C)C[C@H](NC(=O)CC[C@H](N)C(=O)O)C(=O)NCc1nn[nH]n1,,,
